This is an account of results in patent US20200038392A1, “TOPICAL COMPOSITIONS AND METHODS OF PREPARATION AND USE” (Aldeyra Therapeutics, Inc., priority 2018, published 2020).

The format of data set [1] is physicochemical. The text has this: It is important to note that the comparison formulation has a nominal ADX-102 concentration of 1.0% w/w, which was higher than that observed in the aqueous phase of the comparison formulation (0.31% w/w). […] However, it is possible that oil phase excipients may assist in solubilizing ADX-102, allowing it to partition between phases.

Data set [2] in a line: ADX-102 oxidation investigation: peroxide spiking (H2O2, NMP) and high temperature stress in PEG 400. The format is physicochemical. The settings on record: both peroxide spiking experiments (H2O2 and NMP); t=48 h at 70° C. The protocol: A preliminary study was performed in an attempt to degrade ADX-102 to a suitable level such that oxidation products observed during long-term stability could be detected. To this end, an ADX-102 in PEG 400 stock solution (0.1% w/w) was prepared and degraded with hydrogen peroxide (H2O2) and N-methylpyrrolidone (NMP) at 0.1 and 1.0% w/w concentrations, respectively. Additionally, the stocks were stressed at 40 and 70° C. to increase degradation. […] Sufficient degradation of ADX-102 was observed following spiking with […] H2O2 and storage at 70° C. for 48 h condition and was therefore considered suitable for use in antioxidant/stabilizer selection experiments described below.

Data set [3] is described as follows: Saturated solubility of ADX-102 in DoE solvent systems. In kind it is physicochemical. The settings on record: solvent system SS26; range in brackets. How it is done: Following the visual assessment of placebo formulations, a DoE mixture design for ADX-102 aqueous phase solvent systems was prepared, as shown in Table 22. This was performed in order to assess the solubility of ADX-102 in solvent systems and to confirm that at least a 1.0% w/w and a 5% w/w concentration of ADX-102 in the aqueous phase of the formulation was obtainable. The following excipient levels were assessed during the solvent system DoE experiments: • Water: 0-50% • Transcutol® HP: 0-20% • SR PEG 400: 0-60% • Ethanol: 0-20% • Propylene glycol: 0-15%
SS19, along with SS20 (SS21 was not used due to the high levels of Transcutol® HP), were used as a base for further solvent system development. SS23-SS26 were prepared, broadly based on these systems, with varying levels of excipient and added antioxidant/stabilizer, and preservative. The compositions of these solvent systems are detailed in Table 25. Additionally, penetration enhancers were varied in the developed solvent system, with SS23 (based on SS19) including no Transcutol® and SS25 including diisopropyl adipate, and in the case of SS24, a humectant (glycerol). It should be noted that SS25 became turbid following the addition of diisopropyl adipate.
The solvent system SS26 was developed in order to manufacture a 5% w/w formulation. […]

A short description of data set [4]: Super-refined PEG 400 versus non-refined PEG 400: saturated solubility and chemical stability of ADX-102. The format is physicochemical. The settings on record: in PEG 400 (non-super refined). The protocol: The use and requirement of non-super refined PEG 400 as an excipient was investigated in view of to the higher cost of SR PEG 400. Saturated solubility and chemical stability of ADX-102 in PEG 400 (non-super refined) was performed as described above.

Data set [5] can be described thus: Solubility of ADX-102 in potential receiver fluid systems. The format is physicochemical. The settings on record: aqueous with cosolvent or surfactant or cyclodextrin. How it is done:
The solubility of the drug in a range of receiver fluid systems was determined to ensure that drug release was not limited by the solubility of ADX-102 in the receptor compartment of Franz cells. The receiver fluids selected for investigation were: ethanol and water (50:50 v/v), 2% Brij 98 in ethanol and water (50:50 v/v), 20% PEG in water, 20% PEG 400 in ethanol and water (50:50 v/v) and 2% Tween 80 in water. The findings are summarized below.

Values after ≈ are worked out from the molar mass of the structure shown. Where two headings read alike, the source gives them in different places.

With `CC(C)(O)c1nc2ccc(Cl)cc2cc1N` [ADX-102, 2-[3-amino-6-chloro-quinolin-2-yl]-propan-2-ol], the Saturated solubility in data set [1] is listed as 0.31 % w/w; in data set [4], over 20.00 % w/w. The solubility in data set [1] was found to be 0.31%; in data set [5] (receiver fluid 1: Ethanol and water (50:50 v/v)), 23.5 mg/mL (≈ 99.5 mM); in data set [5] (receiver fluid 1: ethanol and water (50:50 v/v)), 23.6 mg/mL (≈ 99.5 mM); in data set [5] (receiver fluid 2: 2% Brij 98 in ethanol and water (50:50 v/v)), 28.3 mg/mL (≈ 120 mM); in data set [5] (receiver fluid 3: 20% PEG 400 in water) it was 1.31 mg/mL (≈ 5.53 mM); in data set [5] (receiver fluid 4: 20% PEG 400 in ethanol and water (50:50 v/v)) it was 20.5 mg/mL (≈ 86.4 mM). In addition, the solubility in data set [5] (receiver fluid 5: 2% Tween 80 in water) was 26.3 mg/mL (≈ 111 mM); in data set [5] (receiver fluid systems for Franz cells, range over the investigated receiver fluid systems), 1.31 to 28.4 mg/mL (≈ 5.53 to 120 mM). Also, the “ADX-102 remaining after degradation” value in data set [2] is under 70%. For the same compound, the “ADX-102 saturated solubility (% w/w)” value in data set [3] was 6.85 (6.84-6.86) % w/w.
